Laboratory results: patent publication US5607931A, “1,2-disubstituted ethly amides as inhibitors of ACAT” (Schering Corporation, priority 1995, dated 1997)

Key:
ACAT = target: T1, ACAT (Rattus norvegicus, UniProt Q7TQM4); assay: ACAT Assay (in vitro), transfer of tritiated oleic acid from acyl-CoA to cholesterol, rat liver microsomes; type: biochemical; conditions: for inhibition at 10 µM: read-out: % ACAT Inhib. @10 μM; for IC50: 0.1 to 25 μM
T1 construct: Rat liver microsomes are used as the source of ACAT; from tissue; host or cells: rat liver microsomes
T1 sequence (Q7TQM4 1-524): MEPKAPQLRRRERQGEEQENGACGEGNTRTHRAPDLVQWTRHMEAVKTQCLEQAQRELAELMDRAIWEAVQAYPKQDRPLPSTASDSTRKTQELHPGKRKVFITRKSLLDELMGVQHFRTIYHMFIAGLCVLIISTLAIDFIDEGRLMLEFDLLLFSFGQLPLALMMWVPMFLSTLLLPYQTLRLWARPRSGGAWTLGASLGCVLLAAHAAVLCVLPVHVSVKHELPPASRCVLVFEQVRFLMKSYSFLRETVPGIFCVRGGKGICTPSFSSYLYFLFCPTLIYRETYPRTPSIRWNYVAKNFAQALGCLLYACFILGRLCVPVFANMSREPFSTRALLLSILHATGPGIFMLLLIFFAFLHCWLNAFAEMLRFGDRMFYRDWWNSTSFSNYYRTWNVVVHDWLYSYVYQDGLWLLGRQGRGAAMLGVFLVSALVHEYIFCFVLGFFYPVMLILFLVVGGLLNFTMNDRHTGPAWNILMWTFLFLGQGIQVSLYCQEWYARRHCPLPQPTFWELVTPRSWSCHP
Description: This assay measures the activity of ACAT by measuring the ACAT-mediated transfer of tritiated oleic acid from acyl-CoA to cholesterol to give labelled cholesterol oleate. Rat liver microsomes are used as the source of ACAT. Assays are performed in round bottom microtiterplates using a total incubation volume of 50 μL. Each incubation well receives 10 μL assay buffer (0.5M KHPO4, 10 μM dithiothreitol, pH 7.4), 7.5 μL of 40 mg/mL BSA (Bovine Serum Albumin) and 12.5 μg of microsomal protein. The test compound (in sufficient amount to bring the final concentration to from 0.1 to 25 μM), reference compound, or vehicle control is added and the final volume brought to 47 μL. The microtiterplate is then floated on the surface of a 37° C. water bath for fifteen minutes. Incubations are started by the addition of 3 μL ^3 H-acyl CoA (1 μCi/well, final concentration of 10 μM acyl CoA). The plate is then returned to the water bath for 15 minutes. The incubations are then terminated by application of 15 μL from each incubation to individual lanes on a thin layer plate (Silica Gel GF 20×20 cm). Standards are applied to several lanes so that the cholesterol ester band can be identified. After drying, the plates are eluted with 90:10:1 petroleum ether:diethyl ether:acetic acid. The standards are visualized via iodine vapor, and the regions corresponding to cholesterol ester are scraped into 7 mL scintillation vials. 4 mL of scintillant are added to each vial, and the radioactivity quantified. Background count is determined by the boiled controls. Full activity is determined by activity in the presence of vehicle. The percent inhibition is calculated by subtracting the background from both control and test samples, and the test value is calculated as a percentage of the control. For IC50 determinations, the inhibition is plotted against drug does on a log scale and the concentration at which 50% inhibition is obtained is determined.

liver cholesterol esters = assay: In Vivo Assay of Hypolipidemic Agents Using the Hyperlipidemic Hamster; conditions: Mesocricetus auratus, 168 h; 50 mpk, oral gavage in corn oil once daily, seven days; 0.5% cholesterol diet; percent reduction versus control; read-out: In Vivo 50 mpk % Redn. L/CE
Description: In Vivo Assay of Hypolipidemic Agents Using the Hyperlipidemic Hamster
Hamsters are separated into groups of six and given a control cholesterol diet (Purina Chow #5001 containing 0.5% cholesterol) for seven days. Diet consumption is monitored to determine dietary cholesterol exposure in the face of test compounds. The animals are dosed with the test compound once daily beginning with the initiation of diet. Dosing is by oral gavage of 0.2 mL of corn oil alone (control group) or solution (or suspension) of test compound in corn oil. All animals moribund or in poor physical condition are euthanized. After seven days, the animals are anesthetized by IM injection of ketamine and sacrificed by decapitation. Blood is collected into vacutainer tubes containing EDTA for plasma lipid analysis and the liver excised for tissue lipid analysis. Data is reported as percent reduction of lipid versus control.

Compound	inhibition at 10 µM (ACAT) [%]	IC50 (ACAT) [µM]	change in vivo at 50 mg/kg (liver cholesterol esters) [%]
CCCCCCCC/C=C\CCCCCCCC(=O)NC(CN1CCC(O)CC1)c1ccccc1 (centres unmarked)	98	0.34	-25
CCCCCCCC/C=C\CCCCCCCC(=O)NC(CN1CCOCC1)c1ccccc1 (centres unmarked)	99	0.3	-21
O=C(NC(CN1CCC(O)CC1)c1ccccc1)C(c1ccccc1)c1ccccc1 (centres unmarked)	83	3	-25
O=C(NC(CN1CCCCC1)c1ccccc1)C(c1ccccc1)c1ccccc1 (centres unmarked)	64	–	0
CC(=O)CC(=O)OC1CCN(CC(NC(=O)C(c2ccccc2)c2ccccc2)c2ccccc2)CC1 (centres unmarked)	53	–	–
CCCCCCCC/C=C\CCCCCCCC(=O)NC(CN1CCNCC1)c1ccccc1 (centres unmarked)	64	–	-54
O=C(NC(CN1CCOCC1)c1ccccc1)C(c1ccccc1)c1ccccc1 (centres unmarked)	94	3	-15
CCCCCCCC/C=C\CCCCCCCC(=O)NC(CN1CCC(NC(=O)C(F)(F)F)CC1)c1ccccc1 (centres unmarked)	90	0.8	0
CCCCCCCC/C=C\CCCCCCCC(=O)NC(CN1CCC(N)CC1)c1ccccc1 (centres unmarked)	-90	–	-59
O=C(NC(CN1CCC2(CC1)OCCO2)c1ccccc1)C(c1ccccc1)c1ccccc1 (centres unmarked)	94	0.3	-26
CCCCCCCC/C=C\CCCCCCCC(=O)NC(CN1CCC(=O)CC1)c1ccccc1 (centres unmarked)	100	0.18	–
O=C(NC(CN1CCC(=NO)CC1)c1ccccc1)C(c1ccccc1)c1ccccc1 (centres unmarked)	94	0.4	0
CCCCCCCC/C=C\CCCCCCCC(=O)NC(CN1CCN(C(=O)OC(C)(C)C)CC1)c1ccccc1 (centres unmarked)	100	0.06	-22
CN1CCN(CC(NC(=O)C(c2ccccc2)c2ccccc2)c2ccccc2)CC1 (centres unmarked)	71	4.5	-39
CCCCCCCC/C=C\CCCCCCCC(=O)NC(CC1CCCCC1)c1ccccc1 (centres unmarked)	92	0.18	–
O=C1CCN(CC(NC(=O)C(c2ccccc2)c2ccccc2)c2ccccc2)CC1 (centres unmarked)	90	0.5	0
O=C(CCCCCCCCCCOc1ccccc1)NC(CN1CCCCC1)c1ccccc1 (centres unmarked)	84	5	0
CCCCCCCC/C=C\CCCCCCCC(=O)NC(CN1CCC(OC)CC1)c1ccccc1 (centres unmarked)	93	0.15	-24
CCCCCCCCCCCCCCCC(=O)NC(CN1CCC2(CC1)OCCO2)c1ccccc1 (centres unmarked)	99	0.16	-19
CCCCCCCC/C=C\CCCCCCCC(=O)NC(CN1CCC(OC)(OC)CC1)c1ccccc1 (centres unmarked)	93	0.5	-18
CCCCCCCC/C=C\CCCCCCCC(=O)NC(CN1CCC(=NO)CC1)c1ccccc1 (centres unmarked)	100	0.03	-21
COC1CCN(CC(NC(=O)C(c2ccccc2)c2ccccc2)c2ccccc2)CC1 (centres unmarked)	88	1	-30
CCCCCCCC/C=C\CCCCCCCC(=O)NC(CN1CCC2(CC1)OCCO2)c1ccccc1 (centres unmarked)	93	0.01	-35
CCCCCCCC/C=C\CCCCCCCC(=O)NC(Cc1ccccc1)C1CCCCC1 (centres unmarked)	90	0.17	0
CCCCCCCC/C=C\CCCCCCCC(=O)NC(CN1CCC2(CCCC2)CC1)c1ccccc1 (centres unmarked)	59	–	0
CC(=O)OC1CCN(CC(NC(=O)C(c2ccccc2)c2ccccc2)c2ccccc2)CC1 (centres unmarked)	59	–	-25

Further lines, with some results ahead:

inhibition at 10 µM (ACAT) [%]	IC50 (ACAT) [µM]	Compound	change in vivo at 50 mg/kg (liver cholesterol esters) [%]
81	7	CCCCCCCCCCCCCC(=O)NC(CN1CCN(C)CC1)c1ccccc1 (centres unmarked)	0
90	0.5	CCCCCCCCCCCCCCCCCC(=O)NC(CN1CCN(C)CC1)c1ccccc1 (centres unmarked)	-25
94	1.2	CCCCCCCC/C=C\CCCCCCCC(=O)NC(CN1CCCCC1)c1ccccc1 (centres unmarked)	-12
80	4	CN1CCN(CC(NC(=O)CCCCCCCCCCOc2ccccc2)c2ccccc2)CC1 (centres unmarked)	0
97	0.16	CCCCCC/C=C\CCCCCCCC(=O)NC(CN1CCN(C)CC1)c1ccccc1 (centres unmarked)	-37
97	1.1	CCCCCCCCCCCCCCC(C)(C)C(=O)NC(CN1CCN(C)CC1)c1ccccc1 (centres unmarked)	-40
95	0.29	CCCCCCCCCCCCC(C)(C)C(=O)NC(CN1CCN(C)CC1)c1ccccc1 (centres unmarked)	-44
58	–	CCCCCCCCCCCC(=O)NC(CN1CCN(C)CC1)c1ccccc1 (centres unmarked)	0
87	1.2	CCCCCCCCCCCCCCCC(=O)NC(CN1CCN(C)CC1)c1ccccc1 (centres unmarked)	-60
94	0.39	CCCCCCCCCCC(C)(C)C(=O)NC(CN1CCN(C)CC1)c1ccccc1 (centres unmarked)	0
95	1.8	CCCCCCCCCCCCCCCC(=O)NC(C(=O)N1CCN(C)CC1)c1ccccc1 (centres unmarked)	-17
98	0.3	CCCCCCCC/C=C\CCCCCCCC(=O)NC(CN1CCN(C)CC1)c1ccccc1 (centres unmarked)	-55
